Results reported in patent publication US7932284B2, “Indole sulfonamide modulators of progesterone receptors” (Eli Lilly and Company, priority 2006, dated 2011).

Assays:
[1] = target: T1, human PR (progesterone receptor) (Homo sapiens, UniProt P06401); experiment: PR competition binding assay (HEK293 cell lysate); details: 0.29 nM 3H-methyltrienolone, 293-PR lysate
T1 construct: expressed in transfected cells; host or cells: HEK293
T1 sequence (P06401 1-933): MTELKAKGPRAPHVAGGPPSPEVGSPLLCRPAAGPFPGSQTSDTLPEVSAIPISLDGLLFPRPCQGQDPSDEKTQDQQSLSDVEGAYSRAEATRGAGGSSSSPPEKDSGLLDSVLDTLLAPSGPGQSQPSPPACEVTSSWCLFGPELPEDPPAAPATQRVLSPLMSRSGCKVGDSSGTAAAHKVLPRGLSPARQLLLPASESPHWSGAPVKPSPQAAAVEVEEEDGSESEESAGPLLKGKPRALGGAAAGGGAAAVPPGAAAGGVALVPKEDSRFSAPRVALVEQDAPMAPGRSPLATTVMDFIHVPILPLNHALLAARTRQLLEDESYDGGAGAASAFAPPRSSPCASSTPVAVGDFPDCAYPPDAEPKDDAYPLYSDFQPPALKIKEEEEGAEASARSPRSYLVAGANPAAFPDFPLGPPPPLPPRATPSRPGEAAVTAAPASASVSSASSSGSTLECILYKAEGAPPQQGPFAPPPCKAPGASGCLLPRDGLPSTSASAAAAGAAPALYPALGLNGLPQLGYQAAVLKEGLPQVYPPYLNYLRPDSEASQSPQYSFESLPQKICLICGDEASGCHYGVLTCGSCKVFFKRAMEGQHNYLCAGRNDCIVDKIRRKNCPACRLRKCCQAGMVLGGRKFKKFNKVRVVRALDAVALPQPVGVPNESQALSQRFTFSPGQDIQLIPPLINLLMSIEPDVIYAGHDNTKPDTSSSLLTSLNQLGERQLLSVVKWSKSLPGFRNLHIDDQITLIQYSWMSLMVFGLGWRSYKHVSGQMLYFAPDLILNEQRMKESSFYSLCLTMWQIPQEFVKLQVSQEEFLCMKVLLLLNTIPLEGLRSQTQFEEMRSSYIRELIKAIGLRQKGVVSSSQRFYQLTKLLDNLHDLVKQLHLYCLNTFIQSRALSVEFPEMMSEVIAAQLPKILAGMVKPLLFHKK
Description: (§1) Cell lysates from HEK293 cells overexpressing human GR (glucocorticoid receptor), AR (androgen receptor), MR (mineralocorticoid receptor) or PR (progesterone receptor) are used for competition binding assays to determine Ki values for compounds of interest. Briefly, competition binding assays are run in a buffer containing 20 mM HEPES, pH 7.6, 0.2 mM EDTA, 75 mM NaCl, 1.5 mM MgCl2, 20% glycerol, 20 mM sodium molybdate, 0.2 mM DTT, 20 ug/ml aprotinin, and 20 ug/ml leupeptin, using either 0.3 nM ^3H-dexamethasone for GR binding, 0.36 nM ^3H-methyltrienolone for AR binding, 0.25 nM ^3H-aldosterone for MR binding, or 0.29 nM ^3H-methyltrienolone for PR binding, and either 20 ug 293-GR lysate, 22 ug 293-AR lysate, 20 ug 293-MR lysate or 40 ug 293-PR lysate per well. Competing compounds are added at various concentrations in half-log increments. Non-specific binding is determined in the presence of 500 nM dexamethasone for GR binding, 500 nM aldosterone for MR binding, or 500 nM methyltrienolone for AR and PR binding. The binding reaction (140 μl) is incubated overnight at 4° C., then 70 μl of cold charcoal-dextran buffer (containing per 50 ml of assay buffer, 0.75 g of charcoal and 0.25 g of dextran) is added to each reaction. Plates are mixed 8 minutes on an orbital shaker at 4° C. Plates are then centrifuged at 3,000 rpm at 4° C. for 10 minutes. An aliquot of 120 μl of the mixture is transferred to another 96-well plate and 175 μl of Wallac Optiphase “Hisafe 3” scintillation fluid is added to each well. Plates are sealed and shaken vigorously on an orbital shaker. After an incubation of 2 hrs, plates are read in a Wallac Microbeta counter. […] The Kd for ^3H-dexamethasone for GR binding, ^3H-methyltrienolone for AR binding, ^3H-aldosterone for MR binding, or ^3H-methyltrienolone for PR binding, is determined by saturation binding. The IC50 values for compounds are converted to Ki using Cheng-Prusoff equation and the Kd determined by saturation binding assay.
More preferably the compounds of the present invention have PR binding value K; of <10 nM.

[2] = target: T2, human MR (mineralocorticoid receptor) (Homo sapiens, UniProt P08235); experiment: MR competition binding assay (HEK293 cell lysate); details: 0.25 nM 3H-aldosterone, 293-MR lysate
T2 construct: expressed in transfected cells; host or cells: HEK293
T2 sequence (P08235 1-984): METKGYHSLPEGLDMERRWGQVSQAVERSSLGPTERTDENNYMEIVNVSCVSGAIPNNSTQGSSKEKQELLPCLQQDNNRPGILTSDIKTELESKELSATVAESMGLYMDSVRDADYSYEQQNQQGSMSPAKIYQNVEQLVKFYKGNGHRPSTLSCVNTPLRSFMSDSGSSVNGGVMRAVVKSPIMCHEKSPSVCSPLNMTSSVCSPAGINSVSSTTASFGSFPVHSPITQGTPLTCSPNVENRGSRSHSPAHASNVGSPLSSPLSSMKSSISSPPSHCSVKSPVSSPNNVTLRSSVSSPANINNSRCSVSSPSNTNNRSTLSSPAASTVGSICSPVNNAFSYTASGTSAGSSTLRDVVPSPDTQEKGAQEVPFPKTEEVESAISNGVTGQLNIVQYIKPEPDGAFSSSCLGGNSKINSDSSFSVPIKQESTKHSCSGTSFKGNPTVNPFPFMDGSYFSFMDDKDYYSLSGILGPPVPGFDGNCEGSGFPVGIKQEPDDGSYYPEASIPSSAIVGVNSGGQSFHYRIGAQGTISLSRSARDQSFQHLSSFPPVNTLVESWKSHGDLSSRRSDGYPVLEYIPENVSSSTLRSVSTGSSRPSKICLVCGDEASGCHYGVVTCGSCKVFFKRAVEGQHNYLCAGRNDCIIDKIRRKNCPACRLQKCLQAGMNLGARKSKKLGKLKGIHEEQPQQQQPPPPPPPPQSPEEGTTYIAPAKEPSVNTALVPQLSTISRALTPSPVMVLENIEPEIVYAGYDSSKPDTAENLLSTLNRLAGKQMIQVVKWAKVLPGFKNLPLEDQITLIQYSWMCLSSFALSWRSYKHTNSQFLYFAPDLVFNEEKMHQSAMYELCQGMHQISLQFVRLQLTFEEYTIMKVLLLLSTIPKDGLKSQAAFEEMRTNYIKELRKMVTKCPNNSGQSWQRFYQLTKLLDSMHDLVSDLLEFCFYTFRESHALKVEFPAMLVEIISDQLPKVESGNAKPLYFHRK
Description: as §1

| SMILES | Ki [1] | Ki [2] |
| --- | --- | --- |
| Cn1cc(-c2ccc(C#N)cc2)c2ccc(NS(C)(=O)=O)cc21 [Example 25, N-[3-(4-Cyano-phenyl)-1-methyl-1H-indol-6-yl]-methanesulfonamide] | < 0.05 µM | > 1 µM |
| CC(C)n1cc(-c2ccc(C#N)cc2)c2ccc(NS(C)(=O)=O)cc21 [Example 28, N-[3-(4-Cyano-phenyl)-1-isopropyl-1H-indol-6-yl]-methanesulfonamide] | < 0.05 µM | > 1 µM |
| CC(C)Cn1cc(-c2ccc(C#N)cc2)c2ccc(NS(C)(=O)=O)cc21 [Example 29, N-[3-(4-Cyano-phenyl)-1-isobutyl-1H-indol-6-yl]-methanesulfonamide] | < 0.05 µM | 0.5 to 1 µM |
| Cn1cc(-c2ccc([N+](=O)[O-])cc2)c2ccc(NS(C)(=O)=O)cc21 [Example 30, N-[1-Methyl-3-(4-nitro-phenyl)-1H-indol-6-yl]-methanesulfonamide] | < 0.05 µM | > 1 µM |
| Cn1cc(-c2ccc(C#N)cc2)c2ccc(NS(=O)(=O)c3cccs3)cc21 [Example 32, Thiophene-2-sulfonic acid [3-(4-cyano-phenyl)-1-methyl-1H-indol-6-yl]-amide] | < 0.05 µM | > 1 µM |
| CC(C)n1cc(-c2ccc(Cl)cc2)c2ccc(NS(C)(=O)=O)cc21 [Example 36, N-[3-(4-Chloro-phenyl)-1-isopropyl-1H-indol-6-yl]-methanesulfonamide] | < 0.05 µM | > 1 µM |
| CC(C)n1cc(-c2ccc(C#N)c(F)c2)c2ccc(NS(C)(=O)=O)cc21 [Example 38, N-[3-(4-Cyano-3-fluoro-phenyl)-1-isopropyl-1H-indol-6-yl]-methanesulfonamide] | < 0.05 µM | 0.5 to 1 µM |
| CC(C)n1cc(-c2ccc(C#N)s2)c2ccc(NS(C)(=O)=O)cc21 [Example 43, N-[3-(5-Cyano-thiophen-2-yl)-1-isopropyl-1H-indol-6-yl]-methanesulfonamide] | < 0.05 µM | 0.1 to 0.5 µM |
| CS(=O)(=O)Nc1ccc2c(-c3ccc(C#N)cc3)cn(C3CCCC3)c2c1 [Example 63, N-[3-(4-Cyano-phenyl)-1-cyclopentyl-1H-indol-6-yl]-methanesulfonamide] | < 0.05 µM | > 1 µM |
| CS(=O)(=O)Nc1ccc2c(-c3ccc(C#N)cc3)cn(Cc3ccccc3)c2c1 [Example 72, N-[1-Benzyl-3-(4-cyano-phenyl)-1H-indol-6-yl]-methanesulfonamide] | < 0.05 µM | < 0.05 µM |
| CCOC(=O)c1ccc(-c2cn(C(C)C)c3cc(NS(C)(=O)=O)ccc23)cc1 [Example 74, 4-(1-Isopropyl-6-methanesulfonylamino-1H-indol-3-yl)-benzoic acid ethyl ester] | < 0.05 µM | 0.1 to 0.5 µM |
| CS(=O)(=O)Nc1ccc2c(-c3ccc(C#N)cc3)cn(CC3CCCCC3)c2c1 [Example 77, N-[3-(4-Cyano-phenyl)-1-cyclohexylmethyl-1H-indol-6-yl]-methanesulfonamide] | < 0.05 µM | 0.1 to 0.5 µM |
| CC(C)n1cc(-c2ccc(C#N)n2C)c2ccc(NS(C)(=O)=O)cc21 [Example 78, N-[3-(5-Cyano-1-methyl-1H-pyrrol-2-yl)-1-isopropyl-1H-indol-6-yl]-methanesulfonamide] | < 0.05 µM | 0.1 to 0.5 µM |
| CSc1ccc(-c2cn(C(C)C)c3cc(NS(C)(=O)=O)ccc23)cc1 [Example 83, N-[1-Isopropyl-3-(4-methylsulfanyl-phenyl)-1H-indol-6-yl]-methanesulfonamide] | < 0.05 µM | 0.5 to 1 µM |

Now from value to compound:

| Ki [1] | Ki [2] | SMILES |
| --- | --- | --- |
| < 0.05 µM | 0.5 to 1 µM | Cc1ccc(-c2cn(C(C)C)c3cc(NS(C)(=O)=O)ccc23)cc1F [Example 84, N-[3-(3-Fluoro-4-methyl-phenyl)-1-isopropyl-1H-indol-6-yl]-methanesulfonamide] |
| < 0.05 µM | 0.5 to 1 µM | CC(C)n1cc(-c2ccccc2)c2ccc(NS(C)(=O)=O)cc21 [Example 85, N-(1-Isopropyl-3-phenyl-1H-indol-6-yl)-methanesulfonamide] |
| < 0.05 µM | > 1 µM | COc1ccc(-c2cn(C(C)C)c3cc(NS(C)(=O)=O)ccc23)cc1C [Example 86, N-[1-Isopropyl-3-(4-methoxy-3-methyl-phenyl)-1H-indol-6-yl]-methanesulfonamide] |
| < 0.05 µM | > 1 µM | CC(C)n1cc(-c2ccc(C(N)=O)cc2)c2ccc(NS(C)(=O)=O)cc21 [Example 87, 4-(1-Isopropyl-6-methanesulfonylamino-1H-indol-3-yl)-benzamide] |
| < 0.05 µM | > 1 µM | COc1ccc(-c2cn(C(C)C)c3cc(NS(C)(=O)=O)ccc23)cn1 [Example 88, N-[1-Isopropyl-3-(6-methoxy-pyridin-3-yl)-1H-indol-6-yl]-methanesulfonamide] |
| < 0.05 µM | 0.1 to 0.5 µM | CC(C)n1cc(-c2ccc(O)cc2)c2ccc(NS(C)(=O)=O)cc21 [Example 93, N-[3-(4-Hydroxy-phenyl)-1-isopropyl-1H-indol-6-yl]-methanesulfonamide] |
| < 0.05 µM | 0.5 to 1 µM | CC(C)n1cc(-c2ccc(C=NO)cc2)c2ccc(NS(C)(=O)=O)cc21 [Example 94, N-{3-[4-(Hydroxyimino-methyl)-phenyl]-1-isopropyl-1H-indol-6-yl}-methanesulfonamide] |
| < 0.05 µM | 0.5 to 1 µM | CC(C)n1cc(-c2ccc3sccc3c2)c2ccc(NS(C)(=O)=O)cc21 [Example 95, N-(3-Benzo[b]thiophen-5-yl-1-isopropyl-1H-indol-6-yl)-methanesulfonamide] |
